One test concerns Ptc-1. The test can be described thus: Quantitative RT-PCR (TaqMan) of Ptc-1 transcript in C3H 10T1/2 cells. The format is cell-based, Murine. As to conditions: compound concentration 8 μM. On the procedure:
(§1) The compounds of FIGS. 32 and 33 were tested for their ability to activate transcription of two well-studied targets of the Hedgehog pathway: the transcription factor Gli-1, and the putative Hedgehog receptor component Ptc-1.
(§2) Murine C3H 10T1/2 cells were seeded at approximately 200,000 cells per well in a 24-well plate in complete medium (10% FBS). After 24 hr, medium was removed and replaced with “starvation” medium (0.5% FBS) containing dilutions of compound or Hh protein. After 16-18 hr, total RNA was prepared using TriZol (Life Technologies, inc.).
(§3) One-microgram aliquots of total RNA were used to prepare random hexamer-primed cDNA with […] Reverse transcriptase (Life Technologies, Inc.).
(§4) To measure the relative levels of Gli-1 and Ptc-1 transcripts, TaqMan assays (PE Biosystems) were performed with an ABI Prism 7700 Sequence Detection System. As an internal control, GAPDH transcript levels were simultaneously measured in each reaction. Data were analyzed using Sequence Detector v 1.6.3 (Perkin Elmer).
For orientation: Real-time PCR tracks product formation cycle by cycle.

A further test relates to Gli-1. Briefly: Quantitative RT-PCR (TaqMan) of Gli-1 transcript in C3H 10T1/2 cells. Format: cell-based, Murine. The conditions noted are these: compound concentration 8 μM. On the procedure: as §1, §2, §3, §4
The test system of test [1] is cerebellar neuron precursors. Briefly: Cerebellar neuron precursor proliferation (3H-thymidine incorporation). The format is cell-based, rat. The conditions noted are these: for stimulation of 3H-thymidine incorporation: absence of Hh protein treatment. Here is the method: In order to test the efficacy of Hedgehog signaling agonists, the ability of the agonists to stimulate the proliferation of cerebellar neuron precursors was determined. Cerebellar granule neuron precursors are known to respond to Hh protein by proliferating. To test the agonists, cerebellar neurons were dissected out of postnatal (one week) rat brains, and placed into primary cell culture. Treatment agents were added once, on the first day of culture (0 DIV). Cells were left in culture until 2 DIV, when 3H-thymidine was added for 5 hours; the amount of incorporation by the cells of this 3H-thymidine provides a measure of the level of proliferation of the cells. Cells were then lysed, and the incorporation of 3H-thymidine was determined. The positive control was Hh protein, at 1.0 μg/ml final concentration. Hh protein alone caused approximately a 20-fold increase in 3H-thymidine incorporation, consistent with the known ability of Shh to stimulate proliferation of these cells. Non-Hh-protein-stimulated cells, including cells treated with control vehicle (DMSO), had very low levels of proliferation. […] At 5.0 μM, the p-cyanophenyl compound B caused 10.2-fold induction of 3H-thymidine incorporation. […] At 1.0, 0.3, or 0.1 μM, D caused 16-, 17-, or 13-fold induction, respectively, of 3H thymidine incorporation into the cells.
Background: Uptake of a labelled nucleoside into DNA is a usual measure of proliferation.

In the next test the test system is ptc-1 (d11) lacZ lungs. The test can be described thus: Lung branching assay (ptc-1 lacZ lung explants). The format is cell-based, mouse. As to conditions: 5 μM, 48 hrs. Here is the method: E12.5 old ptc-1 (d11) lacZ lungs were harvested and transgenic embryos identified by lacZ detection using tails. Explants were assembled on 1 μm polycarbonate filters (Costar) placed on top of plastic grids (histology embedding chamber) and placed in standard 12-well tissue culture plates filled with lung explant culture medium (DMEM based, additives optimized for the culture of mouse lungs) for 48 hrs, fixed in lacZ fixative, rinsed and stained for lacZ O/N at 37° C.

The test system of test [2] is hedgehog-responsive Gli-Luc reporter-construct. Briefly: Gli-Luc hedgehog pathway reporter assay in [10T1/2(s12)] cells. The format is cell-based, murine. The conditions noted are these: Table 1. Here is the method: To measure the hedgehog agonist activity of compounds, we used [10T1/2(s12)] cells containing the hedgehog-responsive Gli-Luc reporter-construct. In each MTP (MicroTiter Plate; 96-well plate), 10,000-20,000 cells were plated per well, in full media (10% FBS). After about 24-48 hr, plates were switched to low-serum media (=0.5%. FBS). Subsequently, a test compound was added at 1-5 μM in the presence or absence of octyl-hedgehog (see below). After another 24 hr, the media from the MTPs was discarded and replaced with luciferase assay-mix, containing lysis-buffer with luciferase substrate. The plates were incubated at RT for about 15-30 min and read in a luminometer.
Plates were incubated for 48 hr before switching to low-serum. Compounds were screened at 1-2 μM in the presence of Hh protein (0.01 μg/ml; EC30=about 30% of max-induced activity).
Plates were incubated for 24 hr before switching to low-serum. Compounds were screened at 5 μM without adding Hh protein.
From Screen A, we identified hits identified in FIGS. 32 and 33. The 1,4-diaminocyclohexane subunit of the compounds of FIG. 32 which include this moiety have the two amino substituents disposed in a trans-relationship, e.g., both substituents equatorial on the cyclohexane subunit. These hits were confirmed in Screen B. The data shown in FIGS. 34a and 34b essentially involved dosing the two compounds in both assays (Gli-Luc & SV-Luc).
The data from the Gli-Luc assay is converted to percent activity where full activity with Hh protein is set at 100% (FIG. 35; Table 1). […] Furthermore, the compounds show a more striking induction in the presence of hedgehog (EC50=0.2-0.3 μM, ECmax=70-90% of max induced activity with Hh protein), indicating a synergy between the compounds and Hh protein, consistent with the compounds serving as agonists for the hedgehog pathway.

The subject of test [3] is ptc-1 (d11) lacZ kidney explants. Briefly: Kidney branching assay (ptc-1 lacZ kidney explants). Format: cell-based, mouse. As to conditions: 5 μM, 48 hrs. Here is the method:
E13.5 old ptc-1 (d11) lacZ […] were harvested and transgenic embryos identified by lacZ detection using tails. Explants were assembled on 1 μm polycarbonate filters (Costar) placed on top of plastic grids (histology embedding chamber) and placed in standard 12-well tissue culture plates filled with kidney explant culture medium (DMEM based, additives optimized for the culture of mouse […]) for 48 hrs, fixed in lacZ fixative, rinsed and stained for lacZ O/N at 37° C.

Test [4] concerns patched (ptc-lacZ β-galactosidase reporter). Briefly: Ptc-lacZ reporter mice assay (X-gal staining of tissues). Format: in vivo. As to conditions: agonist 15 mg/kg/injection 4X/day + dipal-Shh 1 mg/kg/injection 2X/day, four days from first day after birth. Here is the method: Mice with a β-galactosidase transgene (ptc-lacZ mice) under the regulatory control of the patched locus express the β-galactosidase protein in the same cells where the endogenous mouse patched gene is expressed. The β-galactosidase protein can thus be used as a faithful reporter of the expression of the endogenous patched gene.
Ptc-lacZ mice were divided into four treatment groups and were treated with the following compounds or combinations of compounds for four days, beginning on the first day after birth (dipal-Shh=dipalmitoylated Sonic hedgehog):
The vehicle for the agonist was 10% DMSO in PBS (pH 7.2). The agonist was injected from a 4.67 mM stock dissolved in the vehicle solution.
18 hours following the last injections, the mice were sacrificed and the following tissues were collected: skull, kidney, lung, scapula, skin and heart. All tissues were fixed in 0.2% glutaraldehyde, 5 mM EDTA (pH 8.0), 20 mM MgCl2, 100 mM Na2HPO4 for 30 minutes before staining in 1 mg/ml X-gal, 12.5 mM potassium ferrocyanide, 12.5 mM potassium ferricyanide, 2 mM MgCl2, 0.01% deoxycholate, 0.02% NP-40, and 100 mM Na2HPO4 for 30 hours. Tissues were judged for relative intensity and photographed.
FIG. 42: Ptc-lacZ mice were divided into two treatment groups and were treated with the following compounds for three days, beginning on the first day after birth:
The vehicle for the agonist was 10% DMSO in PBS (pH 7.2). The agonist was injected from a 1.0 mM stock dissolved in the vehicle solution.
Eighteen hours following the last injections, the mice were sacrificed and the forelimbs were collected and processed as described above.
In a third experiment, Ptc-lacZ mice were divided into five treatment groups and were treated with the following compounds for four days, beginning on the first day after birth:
The vehicle for the agonist was 10% DMSO in PBS (pH 7.2). The agonist was injected from stocks of 0.3, 0.1 and 0.03 mM dissolved in the vehicle solution.

In another test the test system is ptc-lacZ skin punches. Briefly: Skin explants from ptc-lacZ pups (X-Gal stain). The format is cell-based, mouse. The conditions noted are these: cultured 6 days. On the procedure:
Skin from ptc-lacZ E17.5 pups was excised with a 2 mm skin punch. Those skin punches were then cultured for 6 days in control media, or media including either agonist B or D or Hh protein, or media including both an agonist and Hh protein. The explants were then stained with X-Gal stain.

Test [5] concerns HEPM cells with a Gli-Luc construct. The test can be described thus: Gli-Luc reporter in human embryonic palatal mesenchyme (HEPM) cells. Format: cell-based. The source says: FIGS. 47A and B compare the activity of subject compounds O and R in mouse reporter cells (TM3 cells with a Gli-Luc reporter construct, as described above) and in human reporter cells (human embryonic palatal mesenchyme (HEPM) cells with a Gli-Luc construct).

Consider `COc1ccc(CN(C(=O)c2sc3ccccc3c2Cl)C2CCC(N)CC2)cc1-c1cccc([N+](=O)[O-])c1` (stereo not shown) [A], for which the “induction of Ptc-1 relative to that obtained with the optimal concentration of Hh protein” value with Ptc-1 is around 40%. Moreover, in the test on Gli-1, the “induction of Gli-1 relative to that obtained with the optimal concentration of Hh protein” value is listed as around 40%. The “stimulation of 3H-thymidine incorporation” value in test [1] is on record as “significantly stimulate 3H-thymidine incorporation”.
For `COc1ccc(CN(C(=O)c2sc3ccccc3c2Cl)C2CCC(N)CC2)cc1-c1ccc(C#N)cc1` (stereo not shown) [B], the “LacZ reporter gene expression in lung explants” value in the test on ptc-1 (d11) lacZ lungs was “significantly increased reporter gene expression and expansion of the expression domain of the transgene”. In the test with Ptc-1, the “induction of Ptc-1 relative to that obtained with the optimal concentration of Hh protein” value is on record as “approximately 60%”. In addition, the half-maximal effective concentration (EC50) in test [2] is below 10 µM. Also, the “LacZ reporter gene expression in kidney explants” value in test [3] was “significantly increased reporter gene expression and expansion of the expression domain of the transgene”. The “upregulation of hedgehog pathway (β-galactosidase staining)” value in [4] is “clearly capable of upregulating the hedgehog pathway in vivo”. For the same molecule, the “induction of Gli-1 relative to that obtained with the optimal concentration of Hh protein” value in the test with Gli-1 is listed as “approximately 60%”. Moreover, the “induction of 3H-thymidine incorporation” value in [1] (5.0 μM, absence of Hh protein) worked out at 10.2 fold. The “stimulation of 3H-thymidine incorporation” value in test [1] was “significantly stimulate 3H-thymidine incorporation”. Besides, the “X-Gal staining of skin explants” value with ptc-lacZ skin punches (agonist alone) is recorded as “greater staining than culturing with a low dose of Hh protein alone”; in the test on ptc-lacZ skin punches (agonist and a low dose of Hh protein), “staining similar to that of a substantially higher dose of Hh protein”.
`CNC1CCC(N(Cc2ccc(-c3cccnc3)o2)C(=O)c2sc3ccccc3c2Cl)CC1` (stereo not shown) [R]: the half-maximal effective concentration (EC50) in [2] is below 1 µM. In test [5], the “activation of Gli-Luc reporter cell line” value is listed as “activation of the reporter cell line”.
Turning to `CN[C@H]1CC[C@H](N(Cc2cccc(N3CCC4(CC3)OCCO4)c2)C(=O)c2sc3ccccc3c2Cl)CC1` [Y′], the 50% effective concentration (EC50) in [2] was below 10 µM.
`CN[C@H]1CC[C@H](N(Cc2ccc(OC)c(-c3ccc(C#N)cc3)c2)C(=O)c2sc3cccc(F)c3c2Cl)CC1` [Y′′]: in test [2], the EC50 was below 0.05 µM.
Still for that read-out and setting: the figure for `COc1ccc(CN(C(=O)c2sc3ccccc3c2Cl)C2CCC(N)CC2)cc1-c1nccs1` (stereo not shown) [Z] is below 10 µM; for `CN[C@H]1CC[C@H](N(Cc2cccc(C#N)c2)C(=O)c2sc3ccccc3c2Cl)CC1` [Z′] it is below 10 µM.

One may read the EC50 as the concentration that produces a half-maximal response.
